Key:
[1] = test system: E-cadherin; assay: Synthesis of E-cadherin on reconstructed epidermis (immunohistological marking, image analysis); assay type: cell-based, human
Procedure: (§1) The procedure used to validate the agonist and the antagonist of the nAChRs is illustrated below for the synthesis of loricrin on reconstructed epidermis. It also applies to the synthesis of E-cadherin on reconstructed epidermis. The inserts comprising the epidermis under construction are placed in a culture medium containing: • 1,000 μM of mecamylamine (reversible antagonist of the nACHRs) or • 500 μM of nicotine (reversible agonist of the nACHRs).
(§2) On D0, the human keratinocytes are cultivated in a culture medium and then inoculated on an insert.
(§3) On D13 and/or D18, the inserts are recovered, fixed, dehydrated, and incorporated into paraffin.
(§4) Next, cuts are made, and then an immunohistological marking of the loricrin or the E-cadherin is done.
(§5) The display is then produced on a microscope coupled to an image analysis system. The intensity of the fluorescence (green color) is proportional to the synthesis of loricrin or cadherin.

[2] = test system: loricrin; assay: Synthesis of loricrin on reconstructed epidermis (immunohistological marking, image analysis); assay type: cell-based, human; conditions: for Synthesis of Loricrin: D18, untreated control 100%; for synthesis of loricrin relative to the untreated control: mecamylamine 1,000 μM, nicotine 500 μM
Procedure: as §1
On D18, the inserts are recovered, fixed, dehydrated, and incorporated into paraffin.
Cuts are made, and then an immunohistological marking of the loricrin is done.
Visualization is then done on a microscope coupled to an image analysis system. The intensity of the fluorescence (green color) is proportional to the synthesis of loricrin.
as §2, §3, §4, §5

[3] = test system: loricrin; assay: Synthesis of loricrin by Western Blot on normal human keratinocytes in a single layer; assay type: cell-based; conditions: for effect on the synthesis of human keratinocyte loricrin in a single layer: human keratinocytes in a single layer
Procedure: The test is done on normal human keratinocytes, according to the operating procedure described in Item A.II of the part on the evaluation of the cosmetic effectiveness.
It was accomplished by Western Blot on normal human keratinocytes that are isolated from foreskins, according to the operating procedure described below.
On D0, the human keratinocytes are inoculated and then incubated at 37° C.
The cells are then incubated at 37° C.
On D7, the cellular extracts are recovered, and the Western Blot metering is carried out.

| Structure (SMILES) | effect on the synthesis of E-cadherin on reconstructed epidermis [1] | Synthesis of Loricrin ([2]; 1,000 μM) [%] | synthesis of loricrin relative to the untreated control [2] | Change in loricrin synthesis versus control ([3]; 350 μM, normal human keratinocytes, Western Blot on D7) [%] | effect on the synthesis of human keratinocyte loricrin in a single layer [3] | Synthesis of Loricrin ([2]; 500 μM) [%] | Ratio of Loricrin/Control (%) [3] |
| --- | --- | --- | --- | --- | --- | --- | --- |
| CNC1(C)C2CCC(C2)C1(C)C (stereo not shown) [Mecamylamine, mecamylamine] | inhibiting effect | 53 | reduced | −57 | inhibiting effect |  |  |
| CN1CCCC1c1cccnc1 (stereo not shown) [Nicotine, nicotine] | stimulating effect |  | increased |  | stimulating effect | 113 | +51% |
